The species entered for the experiment is Homo sapiens. As to the kind of experiment: Bronchodilation activity against leukotriene D4-induced constriction in human lung small airways assessed as remaining contraction at 10 uM after 1.5 hrs relative to control. The format is functional.
On to `Oc1cc2c(cc1O)CN(C(=S)NCCc1ccc(Cl)cc1)CCC2`, for which the Remaining contraction was found to be 55%. As to `Oc1cc2c(cc1O)CN(C(=S)NCCc1ccc(Cl)cc1)C2`, the Remaining contraction is 56%. As to `Oc1cccc2c1CCN(C(=S)NCCc1ccc(Cl)cc1)C2`, the Remaining contraction amounted to 48%.

For `Oc1cccc2c1CN(C(=S)NCCc1ccc(Cl)cc1)CC2`, the Remaining contraction worked out at 73%. Next, `Oc1ccc2c(c1)CN(C(=S)NCCc1ccc(Cl)cc1)C2`: 41%. For the compound `Oc1ccc2c(c1)CCCN(C(=S)NCCc1ccc(Cl)cc1)C2`, the Remaining contraction is 53%. As to `Oc1ccc2c(c1O)CCN(C(=S)NCCc1ccc(Cl)cc1)C2`, the Remaining contraction worked out at 63%.

For `Oc1cc2c(cc1O)CCN(C(=S)NCCc1ccc(Cl)cc1)CC2`, the Remaining contraction came to 54%. Next, `Oc1ccc2c(c1)CCN(C(=S)NCCc1ccc(Cl)cc1)C2`: 52%. Next, `Oc1ccc(CNC(=S)NCCc2ccc(Cl)cc2)cc1O`: 69%; `Oc1ccc2c(c1)CN(C(=S)NCCc1ccc(Cl)cc1)CCC2`: 40%; `CN(Cc1ccc(O)c(O)c1)C(=S)NCCc1ccc(Cl)cc1`: 69%.

For `CC1c2cc(O)c(O)cc2CCN1C(=S)NCCc1ccc(Cl)cc1` (centres undefined), the Remaining contraction amounted to 58%. Take `CC1Cc2cc(O)c(O)cc2CN1C(=S)NCCc1ccc(Cl)cc1` (centres undefined): the Remaining contraction was 70%.

Consider `Oc1cccc2c1CN(C(=S)NCCc1ccc(Cl)cc1)C2`, for which the Remaining contraction came out at 82%. In the case of `Oc1cc2c(cc1O)CN(C(=S)NCCc1ccc(Cl)cc1)CC2` it was 36%; in that of `Oc1ccc(CCNC(=S)NCCc2ccc(Cl)cc2)cc1O`, 72%; in that of `Oc1cc2c(cc1O)C(Cc1ccccc1)N(C(=S)NCCc1ccc(Cl)cc1)CC2` (centres undefined), 79%.

For the compound `Oc1ccc2c(c1)CN(C(=S)NCCc1ccc(Cl)cc1)CC2`, the Remaining contraction was 75%.

Source of the values: ChEMBL document CHEMBL1141641, “SAR studies of capsazepinoid bronchodilators. Part 1: The importance of the catechol moiety and aspects of the B-ring structure” (Bioorg Med Chem, 2008).
